Where two headings read alike, the source gives them in different places.
What was measured:
[1] = Phase 1 study Part 1: plasma pharmacokinetics after multiple oral doses of Compound 1 as AIC (QD×6 days) in healthy subjects; format: in vivo, human; conditions: for AUC / concentration at 24 h / Cmax: geometric mean (geometric CV%); for AUC: read-out: AUC0-τ (τ = 24 hours); for concentration at 24 h: read-out: Cmin (plasma concentration at 24 hours postdose); for Cmax: healthy subjects
Method: Part 1 was an open label, multiple dose, three period, fixed sequence study to evaluate the effect of Compound 1 on JNK activity following UV irradiation.
On Day 1, after a minimum of an 8-hour fast, subjects received the first dose of Compound 1. All subjects received the following oral doses of Compound 1 in the fixed sequence below: • Treatment A: 60 mg Compound 1 as AIC, QD×6 days; • Treatment B: 160 mg Compound 1 as AIC, QD×6 days; and • Treatment C: 400 mg Compound 1 as AIC, QD×6 days.
All subjects received the following oral doses of Compound 1 as AIC: • Days 1 through 6: Treatment A: 60 mg Compound 1 AIC, QD×6 days; • Days 7 through 12: Treatment B: 160 mg Compound 1 AIC, QD×6 days; and • Days 13 through 18: Treatment C: 400 mg Compound 1 AIC, QD×6 days.
The treatments were administered in the morning following an overnight fast of at least 8 hours. All doses were administered with 240 mL of noncarbonated, room temperature water. Water was allowed as desired except for 1 hour before and 1 hour after drug administration. The first meal following the morning dose on the sixth day of each dosing period was 4 hours postdose. On all other dosing days, the next meal/snack was served after a minimum 2 hours after dosing.
Blood samples for Compound 1 plasma PK analysis were collected at the following time points on Days 6, 12, and 18: predose and 0.5, 2, 4, 6, 10, 12, and 24 hours postdose.
Concentrations of Compound 1 in plasma were measured using a validated liquid chromatography tandem mass spectrometry (LC-MS/MS) assay. In Part 2, concentrations of Compound 1 in whole blood were measured using a validated LC-MS/MS method.
Plasma and whole blood PK parameters were derived for Compound 1 by noncompartmental analysis. Actual sampling times were used in the calculation of PK parameters.
AUCτ: AUC from time zero to tau, where tau is the dosing interval.
Cmax: Maximum observed plasma concentration.
Cmin: Minimum observed plasma concentration.

in vivo [2] = conditions: rat
Excerpt: Based upon available human PK and preclinical pharmacology data, the doses were anticipated to provide a range of PD effects including both minimum and maximum JNK inhibition.

[3] = Solid state chemical stability under stress conditions (HPLC with UV detection); conditions: for Chemical stability (open vial, 2 weeks): HPLC/UV
Method: Six vials were prepared for each salt. Two samples were stored in the refrigerator. The other four samples in open vials were stored under 4 stress conditions, respectively. […] One set of samples stored in the refrigerator were used to prepare the stock and standard solutions.

in vivo [4] = conditions: dog
[5] = system: UVB-induced phospho c-jun expression in skin; assay: Phospho c-Jun immunohistochemistry of UVB-irradiated skin biopsies: quantitative analysis (integrated optical density); format: in vivo, human
Excerpt: A total of four skin biopsies were taken, one at baseline and one each on the sixth day of each treatment period.
(§1) On baseline (Day −1) and on the sixth day of each dosing period (Days 6, 12, and 18), the skin test sites were delineated on the subject's upper buttock between the beltline and the natal cleft on the right side. The right side of the buttock was divided into four different test sites, one site for 2×MED irradiation at baseline and each of the three dosing periods. Each test site was a minimum of 3 cm×3 cm. Subjects received 2×MED UV irradiation at baseline (Day −1) at approximately the same time that irradiation was scheduled on Days 6, 12, and 18, which was 2 hours postdose. Eight hours after UV irradiation (±10 minutes), a skin punch biopsy was taken from the UV exposure site. The biopsies were processed into tissue slides by a third party and analyzed by immunohistochemistry (IHC). This third party was blinded to the treatment periods (baseline and doses).
(§2) Phospho-c-Jun expression in biopsies was analyzed by IHC. Phospho-c-Jun IHC data were subjectively scored on a scale of 0 to 4 based on the intensity and number of epidermal keratinocyte nuclei stained within the tissue section by trained individuals blinded to treatment. The IHC was also analyzed by automated measurement of integrated optical density.
Phospho c-Jun IHC images were analyzed at Quintiles for integrated optical density of positive nuclear staining using Aperio imaging software (Leica Biosystems). The Phospho c-jun score (Optical Density Scale) reflects the percentage of nuclei with ‘3+’ staining intensity (the cutoff for determining positive staining) as determined by the Aperio nuclear phospho c-jun quantitative image analysis algorithm.

[6] = system: UVB-induced phospho c-jun expression in skin; assay: Phospho c-Jun immunohistochemistry of UVB-irradiated skin biopsies: histopathology scores (scale 0-4); format: in vivo, human
Excerpt: as §1, §2
Phospho c-Jun immunohistochemistry (IHC) images were scored by 2 independent pathologists from Quintiles using a scoring scale of 0-4. The percentage of epithelial c-Jun positive nuclei was scored as follows: […]

[7] = human, plasma, Treatment A: 60 mg as AIC, oral QD×6 days, N=15
[8] = human, plasma, Treatment B: 160 mg as AIC, oral QD×6 days, N=15
[9] = human, plasma, Treatment C: 400 mg as AIC, oral QD×6 days, N=15

C[C@@H]1CC[C@@H](Nc2nc(NC(C)(C)C)ncc2C(N)=O)C[C@H]1O [Compound 1, 2-(tert-butylamino)-4-((1R,3R,4R)-3-hydroxy-4-methylcyclohexylamino)-pyrimidine-5-carboxamide]
increase of systemic exposure (AUC and Cmax) with dose ([1]; dose increased from 60 mg to 400 mg, multiple oral doses): more than dose-proportional | half-life ([1]; human, plasma, oral, following multiple doses (60-400 mg QD), read-out: mean terminal half life): 14 to 21 h | AUC [1, 7]: 2290 ng·h/mL | concentration at 24 h [1, 7]: 22 ng/mL | Tmax ([1]; human, plasma, Treatment A: 60 mg as AIC, oral QD×6 days, median (minimum, maximum), N=15, read-out: Tmax): 1.95 h | AUC [1, 8]: 8560 ng·h/mL | concentration at 24 h [1, 8]: 65 ng/mL | Tmax ([1]; human, plasma, Treatment B: 160 mg as AIC, oral QD×6 days, median (minimum, maximum), N=15, read-out: Tmax): 1.95 h | AUC [1, 9]: 31300 ng·h/mL | concentration at 24 h [1, 9]: 212 ng/mL | Tmax ([1]; human, plasma, Treatment C: 400 mg as AIC, oral QD×6 days, median (minimum, maximum), N=15, read-out: Tmax): 1.97 h | Tmax ([1]; human, plasma, following single or multiple oral doses at the dose levels evaluated, postdose, read-out: median Tmax): 1 to 4 h | Cmax ([1]; human, Treatment A: 60 mg as AIC, oral QD×6 days, plasma, N=15): 419 ng/mL | Cmax ([1]; human, Treatment B: 160 mg as AIC, oral QD×6 days, plasma, N=15): 1460 ng/mL | Cmax ([1]; human, Treatment C: 400 mg as AIC, oral QD×6 days, plasma, N=15): 4460 ng/mL | AUC (in vivo [2]): 23400 ng·h/mL | Chemical stability (open vial, 2 weeks) ([3]; 80° C./75% RH): no change | Chemical stability (open vial, 2 weeks) ([3]; 80° C.): no change | % Remaining at 80° C. ([3]; solid state, open vial, 80° C., 2 weeks, HPLC with UV detection): 101.8% | % Remaining at 80° C./75% RH ([3]; solid state, open vial, 80° C./75% RH, 2 weeks, HPLC with UV detection): 100.8% | AUC at 28 days (in vivo [4]): 81200 ng·h/mL | change from baseline in phospho c-jun staining (integrated optical density) ([5]; 60 mg QD×6 days, biopsy 8 hours after 2×MED UVB): not decreased | percentage of subjects with a decrease in optical density score compared to baseline ([5]; 60 mg dose (4/14)): 29% | decrease from baseline in phospho c-jun staining (integrated optical density) ([5]; 160 mg QD×6 days, biopsy 8 hours after 2×MED UVB, p=0.18): 7.5% | percentage of subjects with a decrease in optical density score compared to baseline ([5]; 160 mg dose (11/13)): 85% | decrease from baseline in phospho c-jun staining (integrated optical density) ([5]; 400 mg QD×6 days, biopsy 8 hours after 2×MED UVB, p<0.0001): 29.5% | percentage of subjects with a decrease in optical density score compared to baseline ([5]; 400 mg dose (13/13)): 100% | inhibition of UVB-induced phospho c-jun expression in skin ([5]; 60, 160, 400 mg QD×6 days, automated quantitative image analysis): dose-dependent manner | percentage of individuals showing either no change or a decrease in histopathology score ([6]; 60 mg dose group (8/15)): 53% | percentage of individuals showing either no change or a decrease in histopathology score ([6]; 160 mg dose group (10/14)): 71% | percentage of individuals showing either no change or a decrease in histopathology score ([6]; 400 mg dose group (11/14)): 79% | change from baseline in median histopathology scores ([6]; 60, 160, 400 mg QD×6 days, scale 0-4, 2 independent pathologists): not significantly affected
